Drawing on patent US20190127366A1 (LifeSci Pharmaceuticals, Inc., priority 2015, published 2019), this text covers IC50 and EC50 for 16 compounds.

For test [1], the target named is T1, human complement factor D (Homo sapiens, UniProt P00746).
T1 construct: purchased R&D Systems 1824-SE
Description: In vitro enzyme inhibition (Z-Lys-SBzl/DTNB absorbance assay). It counts as biochemical. The conditions noted are these: Complement Factor D (R&D Systems), substrate Z-Lys-SBzl, A405 nm; read-out: CFD IC50. The procedure, abridged: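 Factor D (6.25 ng/μL before addition) preincubated 5 min RT with compound (8 points from 50 μM, 6-fold, 0.5% DMSO final) in 50 mM Tris/HCl pH 7.5, 1 M NaCl, then Z-Lys-SBzl/DTNB added (200 μM each before addition). A405 read kinetically every 30 s for 60 min; IC50 from variable-slope fit, controls with and without enzyme.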

Test [2] has as its system alternative pathway (AP) hemolytic activity. Description: AP hemolysis inhibition assay. The conditions noted are these: Erythrocyte, 1 h; Normal Human Serum, chicken or rabbit erythrocytes, 60 min at 37° C., OD 414 nm. It counts as cell-based. The protocol:
The ability of the compounds disclosed herein to inhibit alternative pathway (AP) hemolytic activity was determined. Red blood cells (RBC), chicken or rabbit erythrocyctes (SbjBio), were washed three time using assay buffer containing 0.1% gelatin, 5 mM Veronal, 145 mM NaCl, 0.025% NaN3, 10 mM Mg-EGTA pH 7.3. In 100 μL reaction system, 1300 to 1500 ng/μL final concentration of Normal Human Serum (CompTech) was incubated with compound for 15 min at 37° C. Then 2×10^6 cells/well of chicken or rabbit erythrocytes in assay buffer were added and incubated for an additional 60 min at 37° C. Positive control (100% lysis) consists of serum and RBC, and negative control (0% lysis) consists of assay buffer and RBC only. Samples were centrifuged at 2000 g for 5 min, and supernatants collected. Optical density of the supernatant is monitored at 414 nm using Synergy 2 (BioTek). Percentage lysis in each sample is calculated relative to positive control (100% lysis).
Table 3 discloses the inhibitory activity of the compounds provided herein in the hemolysis assay.

A value given as a limit tells only on which side of the number the result lay.

T1 sequence (P00746 26-253): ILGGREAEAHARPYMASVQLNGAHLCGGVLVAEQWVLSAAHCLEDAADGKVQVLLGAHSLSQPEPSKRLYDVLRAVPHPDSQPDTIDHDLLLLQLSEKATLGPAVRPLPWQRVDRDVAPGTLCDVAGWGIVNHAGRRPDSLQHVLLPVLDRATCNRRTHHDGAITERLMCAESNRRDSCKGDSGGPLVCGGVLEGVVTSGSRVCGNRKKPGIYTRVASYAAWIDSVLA

For the compound `COc1ccc(Cl)nc1NC(=O)[C@@H]1[C@H]2CC[C@H](C2)N1C(=O)Cn1nc(C(N)=O)c2ccccc21` [Example 96, 1-(2-((1R,3S,4S)-3-((6-chloro-3-methoxypyridin-2-yl)carbamoyl)-2-azabicyclo[2.2.1]heptan-2-yl)-2-oxoethyl)-1H-indazole-3-carboxamide], in test [1], the IC50 is less than 100 nM. The EC50 in test [2] was less than 100 nM.
For the compound `NC(=O)c1nn(CC(=O)N2[C@@H]3CC[C@@H](C3)[C@H]2C(=O)Nc2cc(C(=O)O)cc(Cl)n2)c2ccccc12` [Example 104, 2-((1R,3S,4S)-2-(2-(3-carbamoyl-1H-indazol-1-yl)acetyl)-2-azabicyclo[2.2.1]heptane-3-carboxamido)-6-chloroisonicotinic acid], the IC50 in test [1] is less than 100 nM. The EC50 in test [2] was less than 100 nM.
Turning to `COC(=O)c1ccc2c(C(N)=O)nn(CC(=O)N3[C@@H]4CC[C@@H](C4)[C@H]3C(=O)Nc3cccc(Cl)n3)c2c1` [Example 122, methyl 3-carbamoyl-1-(2-((1R,3S,4S)-3-((6-chloropyridin-2-yl)carbamoyl)-2-azabicyclo[2.2.1]heptan-2-yl)-2-oxoethyl)-1H-indazole-6-carboxylate], the IC50 in test [1] lay in the range of 100 to 1000 nM. Further, the EC50 in test [2] is 100 to 1000 nM.
For `NC(=O)c1nn(CC(=O)N2[C@@H]3CC[C@@H](C3)[C@H]2C(=O)Nc2cccc(Cl)n2)c2cc(C(=O)O)ccc12` [Example 123, 3-carbamoyl-1-(2-((1R,3S,4S)-3-((6-chloropyridin-2-yl)carbamoyl)-2-azabicyclo[2.2.1]heptan-2-yl)-2-oxoethyl)-1H-indazole-6-carboxylic acid], in test [1], the IC50 is less than 100 nM. Also, the EC50 in test [2] is less than 100 nM.
Regarding `NC(=O)c1nn(CC(=O)N2[C@@H]3CC[C@@H](C3)[C@H]2C(=O)Nc2cccc(Cl)n2)c2cc(CO)ccc12` [Example 125, 1-(2-((1R,3S,4S)-3-((6-chloropyridin-2-yl)carbamoyl)-2-azabicyclo[2.2.1]heptan-2-yl)-2-oxoethyl)-6-(hydroxymethyl)-1H-indazole-3-carboxamide], in test [1], the IC50 is 100 to 1000 nM. In test [2], the EC50 is 100 to 1000 nM.
For `NC(=O)c1nn(CC(=O)N2C(C(=O)NCc3cccc(Cl)c3F)[C@@H]3C[C@@H](O)[C@H]2[C@H]3O)c2ccccc12` (stereo partly drawn) [Example 152, 1-(2-((1S,4S,6R,7S)-3-((3-chloro-2-fluorobenzyl)carbamoyl)-6,7-dihydroxy-2-azabicyclo[2.2.1]heptan-2-yl)-2-oxoethyl)-1H-indazole-3-carboxamide], in test [1], the half-maximal inhibitory concentration (IC50) was 100 to 1000 nM. For the same compound, in test [2], the EC50 was 100 to 1000 nM.
With `NC(=O)n1cc(NC(=O)N2[C@@H]3CC[C@@H](C3)[C@H]2C(=O)Nc2cccc(Cl)n2)c2ccccc21` [Example 156, (1R,3S,4S)-N2-(1-carbamoyl-1H-indol-3-yl)-N3-(6-chloropyridin-2-yl)-2-azabicyclo[2.2.1]heptane-2,3-dicarboxamide], the IC50 in test [1] fell in the range of 100 to 1000 nM. Moreover, in test [2], the EC50 lay in the range of 100 to 1000 nM.
Regarding `NC(=O)c1nn(CC(=O)N2[C@H](C(=O)NCc3cccc(Cl)c3F)C[C@@H]3CCC[C@@H]32)c2ccccc12` [Example 157, 1-(2-((2S,3aS,6aS)-2-((3-chloro-2-fluorobenzyl)carbamoyl)hexahydrocyclopenta[b]pyrrol-1(2H)-yl)-2-oxoethyl)-1H-indazole-3-carboxamide], in test [1], the IC50 was less than 100 nM. Further, the EC50 in test [2] was in the range of 100 to 1000 nM.
`NC(=O)c1nn(CC(=O)N2[C@H](C(=O)Nc3cccc(Cl)n3)C[C@@H]3CCC[C@@H]32)c2ccccc12` [Example 159, 1-(2-((2S,3aS,6aS)-2-((6-chloropyridin-2-yl)carbamoyl)hexahydrocyclopenta[b]pyrrol-1(2H)-yl)-2-oxoethyl)-1H-indazole-3-carboxamide]: in test [1], the IC50 fell in the range of 100 to 1000 nM. The EC50 in test [2] was 100 to 1000 nM.
As for `NC(=O)c1nn(CC(=O)N2[C@H](C(=O)NCc3cccc(Cl)c3F)C[C@@H]3CCC[C@@H]32)c2cc(F)ccc12` [Example 167, 1-(2-((2S,3aS,6aS)-2-((3-chloro-2-fluorobenzyl)carbamoyl)hexahydrocyclopenta[b]pyrrol-1(2H)-y1)-2-oxoethyl)-6-fluoro-1H-indazole-3-carboxamide], the IC50 in test [1] is less than 100 nM. In test [2], the EC50 was in the range of 100 to 1000 nM.
Regarding `Cc1ccc2c(c1)c(C(N)=O)nn2CC(=O)N1[C@H](C(=O)Nc2cccc(Cl)n2)C[C@@H]2CCC[C@@H]21` [Example 168, 1-(2-((2S,3aS,6aS)-2-((6-chloropyridin-2-yl)carbamoyl)hexahydrocyclopenta[b]pyrrol-1(2H)-yl)-2-oxoethyl)-5-methy1-1H-indazole-3-carboxamide], in test [1], the IC50 was less than 100 nM. Moreover, the EC50 in test [2] lay in the range of 100 to 1000 nM.
In the same order, the values of `NC(=O)c1nn(CC(=O)N2[C@H](C(=O)Nc3cccc(Cl)n3)C[C@@H]3CCC[C@@H]32)c2ccc(F)cc12` [Example 169, 1-(2-((2S,3aS,6aS)-2-((6-chloropyridin-2-yl)carbamoyl)hexahydrocyclopenta[b]pyrrol-1(2H)-yl)-2-oxoethyl)-5-fluoro-1H-indazole-3-carboxamide] are 100 to 1000 nM and 100 to 1000 nM.
With `NC(=O)c1nn(CC(=O)N2CC[C@H]2C(=O)NCc2cccc(Cl)c2F)c2ccccc12` [Example 185, (S)-1-(2-(2-((3-chloro-2-fluorobenzyl)carbamoyl)azetidin-1-yl)-2-oxoethyl)-1H-indazole-3-carboxamide], the IC50 in test [1] was less than 100 nM. In addition, the EC50 in test [2] is less than 100 nM.
As for `NC(=O)n1nc(CC(=O)N2CC[C@H]2C(=O)NCc2cccc(Cl)c2F)c2ccccc21` [Example 188, (S)-3-(2-(2-((3-chloro-2-fluorobenzyl)carbamoyl)azetidin-l-yl)-2-oxoethyl)-1H-indazole-1-carboxamide], the IC50 in test [1] was less than 100 nM. Further, the EC50 in test [2] was in the range of 100 to 1000 nM.
`NC(=O)c1nn(CC(=O)N2CC[C@H]2C(=O)NCc2cccc(Cl)c2F)c2cnccc12` [Example 189, (S)-1-(2-(2-((3-chloro-2-fluorobenzyl)carbamoyl)azetidin-1-yl)-2-oxoethyl)-1H-pyrazolo[3,4-c]pyridine-3-carboxamide]: in test [1], the IC50 was less than 100 nM. Also, the EC50 in test [2] lay within 100 to 1000 nM.
Take `CC(=O)c1nn(CC(=O)N2CC[C@H]2C(=O)NCc2cccc(Cl)c2F)c2ccccc12` [Example 190, (S)-1-(2-(3-acetyl-1H-indazol-1-yl)acetyl)-N-(3-chloro-2-fluorobenzyl)azetidine-2-carboxamide]: in test [1], the IC50 was less than 100 nM. The EC50 in test [2] is less than 100 nM.

In general, IC50 refers to the concentration that inhibits the measured activity by half. What is called EC50 is the concentration at which the effect is half-maximal.
